Measured values from patent publication EP2198709A1, “Method for treating resistant animal pests” (Bayer CropScience AG, priority 2008, dated 2010).

What was measured:
Type in all cases: in vivo
Bemisia tabaci ESP-00 [1] = assay: Leaf-dip bioassay, adult whiteflies, multi-resistant strain ESP-00; settings: adults; for ESP-00 LC50: multi-resistant strain ESP-00, mortality after 72 h
From the text: (§1) Es wurden Versuche durchgeführt, um die überlegene Blattwirkung von Enaminocarbonylverbindungen gegen adulte Tiere eines Stamms von Bemisia tabaci zu zeigen, der bekanntermaßen resistent ist gegen Neonikotinoid-Insektizide sowie andere Insektizidklassen, einschließlich Insekten-Wachstumsregulatoren (wie Buprofezin) und Antifeedants (Substanzen, die einen Schaderreger vom Fraß abhalten) (wie Pymetrozin).
(§2) Baumwollblattscheiben (30 mm im Durchmesser) wurden für 5 sec in wässrige Lösungen technischer Insektizide, enthaltend 0,2 g/l Triton-X-100 als nicht-ionisches Benetzungsmittel, getaucht. Luftgetrocknete Blattscheiben wurden dann mit der adaxialen Seite nach unten auf ein Agarbett (12 g/l) in einer kleinen Petrischale (40 mm im Durchmesser) gelegt. Adulte Weiße Fliegen wurden mittels eines Vakuum-getriebenen Aspirators aus Aufzuchtkäfigen eingesammelt und 20 adulte Tiere wurden nach kurzer CO2-Narkose auf die Blattscheiben gelegt. Anschließend wurde jede Petrischale mit einem belüfteten Deckel verschlossen und umgedreht aufbewahrt. Nach 72 h wurde die Mortalität der Weißen Fliegen bestimmt. Jedes Insektizid wurde mindestens dreifach mit 2-oder 3-fach Bestimmungen pro Konzentration getestet.
(§3) LC50-Werte wurden aus Probit-Regressionen unter Verwendung des Computerprogramms POLO-PC 2 (LeOra Software, Berkeley, USA) berechnet.
(§4) Tabelle 1. Log-Dosis Probit Mortalitätsdaten für verschiedene Klassen von Insektiziden erhalten aus Blatt-Tauch-Bioassays gegen adulte Tiere zweier Bemisia tabaci Stämme, SUD-S und ESP-00, die bekanntermaßen Insektizid-empfindlich (SUD-S) bzw. multiresistent (ESP-00) sind (Stumpf und Nauen, 2003). Mortalität wurde nach 72 h bestimmt, mit Ausnahme von Buprofezin (10-12 d).

Bemisia tabaci SUD-S [2] = assay: Leaf-dip bioassay, 2nd-instar nymphs, insecticide-susceptible strain SUD-S; settings: nymphs in 2nd stage, mortality 10-12 d
Protocol: Larvale Tauch-Bioassays wurden mit geringfügigen Änderungen gemäß Elbert und Nauen (1996) durchgeführt. Die echten Blätter einer drei Wochen alten Baumwollpflanze wurden alle außer einem entfernt. Das verbleibende Blatt wurde auf eine Größe von ca. 15-20 cm^2 zurechtgeschnitten. Die Pflanzen wurden ohne Verwendung von Clip-Käfigen mit adulten Weißen Fliegen infiziert (ca. 20-30 adulte Tiere pro Blatt für 6-7 h). Die Weißen Fliegen wurden dann entfernt und zum geeigneten Zeitpunkt (gewöhnlich nach 10-12 d wenn die Nymphen im zweiten Stadium vorherrschten) wurden die infizierten Blätter für 5 sec in serielle wässrige Insektizidlösungen (s.o.) getaucht. […] Jedes Insektizid wurde mindestens dreifach mit 2- oder 3-fach Bestimmungen pro Konzentration getestet.
as §3, §4

Bemisia tabaci ESP-00 [3] = assay: Leaf-dip bioassay, 2nd-instar nymphs, multi-resistant strain ESP-00
Protocol: Larvale Tauch-Bioassays wurden mit geringfügigen Änderungen gemäß Elbert und Nauen (1996) durchgeführt. Die echten Blätter einer drei Wochen alten Baumwollpflanze wurden alle außer einem entfernt. Das verbleibende Blatt wurde auf eine Größe von ca. 15-20 cm^2 zurechtgeschnitten. Die Pflanzen wurden ohne Verwendung von Clip-Käfigen mit adulten Weißen Fliegen infiziert (ca. 20-30 adulte Tiere pro Blatt für 6-7 h). Die Weißen Fliegen wurden dann entfernt und zum geeigneten Zeitpunkt (gewöhnlich nach 10-12 d wenn die Nymphen im zweiten Stadium vorherrschten) wurden die infizierten Blätter für 5 sec in serielle wässrige Insektizidlösungen (s.o.) getaucht. Die prozentuale Mortalität wurde an Tag 21-23 bei ca. 24 °C gemessen, sobald alle Überlebenden die Puppenstadien durchschritten hatten. Jedes Insektizid wurde mindestens dreifach mit 2- oder 3-fach Bestimmungen pro Konzentration getestet.
as §3, §4

Bemisia tabaci SUD-S [4] = assay: Leaf-dip bioassay, adult whiteflies, insecticide-susceptible strain SUD-S; settings: adults, mortality after 72 h
From the text: as §1, §2, §3, §4

SMILES	akute Kurzzeiteffekte gegen adulte Tiere von B. tabaci (Bemisia tabaci ESP-00 [1]; strain not specified, result in words)	SUD-S LC50 (Bemisia tabaci SUD-S [2]) [ppm]	Kreuzresistenz von Nymphen im zweiten Stadium des Stamms ESP-00 (Bemisia tabaci ESP-00 [3]; 2nd-stage nymphs, result in words)	ESP-00 LC50 (Bemisia tabaci ESP-00 [3]; nymphs in 2nd stage, multi-resistant strain ESP-00, mortality 10-12 d) [ppm]	SUD-S LC50 (Bemisia tabaci SUD-S [4]) [ppm]	ESP-00 LC50 (Bemisia tabaci ESP-00 [1]) [ppm]	Resistenz / Kreuz-resistenz von adulten B. tabaci Tieren des Stamms ESP-00 im Vergleich zu SUD-S (Bemisia tabaci ESP-00 [1]; leaf-dip, result in words)
CC(C)N1C(=O)N(c2ccccc2)CS/C1=N\C(C)(C)C [Buprofezin]	keine akuten Kurzzeiteffekte	0.27	starke Kreuzresistenz	260			
CN/C(=N/CC1CCOC1)N[N+](=O)[O-] (centres unmarked) [Dinotefuran]					0.17	9.8	
CC1=NNC(=O)N(/N=C/c2cccnc2)C1 [Pymetrozin]					0.49	360	starke Resistenz
CN1COCN(Cc2cnc(Cl)s2)/C1=N\[N+](=O)[O-] [Thiamethoxam]					1.1	76	
